# In patent publication US20030077298A1, “Activators and ligands of PPAR-beta/delta for the treatment of skin conditions” (The Regents of the University of California, a California …, priority 2001, published 2003):
# Read-outs that look alike come from different tables or passages of the source.
# Columns and labels:
# [1] = test system: cultured human keratinocytes; experiment: PPAR-beta/delta mRNA in keratinocytes treated with inflammatory stimuli (Northern blot); format: cell-based; settings: LPS; IL1-beta 50 ng/ml; TNF-alpha 100 ng/ml; UV-B 30 mJ/cm^2
# Description: Second-passage keratinocytes isolated from newborn foreskins were cultured in serum-free keratinocyte growth medium (KGM; Clonetics, San Diego, Calif., USA). […] Control keratinocytes were treated with vehicle (0.05%) ethanol, or sham irradiated. UV exposure was performed in phosphate buffered saline which was replaced by serum free KGM after irradiation. For cytokine treatment, 0.1% bovine serum albumin was added to the medium.
# (§1) PolyA RNA was purified using oligo(dT) cellulose (Amersham Pharmacia). RNA was electrophoresed through 1% agarose gels containing 2.2 M formaldehyde, and RNA integrity was visualized by ethidium bromide staining. The RNA was then transferred to a nylon membrane and blots were hybridized overnight at 65° C. with the appropriate ^32P-labeled cDNA probes. Probes were ^32P-labeled by random priming. Washes were performed in 0.1% SSC and 0.1 SDS for 20 minutes at room temperature and at 65° C., respectively. Autoradiography was performed at −70° C. Blots were probed with GAPDH to control for normal loading. Bands of the correct size were quantified by densitometry using Quantityone software (Bio-Rad Laboratories, Inc., Hercules, Calif., USA).
# PPAR-alpha [2] = target: T1, PPAR-alpha (Homo sapiens, UniProt Q07869); settings: known cross-reactive PPAR agonists; cited from earlier work
# T1 sequence (Q07869 1-468): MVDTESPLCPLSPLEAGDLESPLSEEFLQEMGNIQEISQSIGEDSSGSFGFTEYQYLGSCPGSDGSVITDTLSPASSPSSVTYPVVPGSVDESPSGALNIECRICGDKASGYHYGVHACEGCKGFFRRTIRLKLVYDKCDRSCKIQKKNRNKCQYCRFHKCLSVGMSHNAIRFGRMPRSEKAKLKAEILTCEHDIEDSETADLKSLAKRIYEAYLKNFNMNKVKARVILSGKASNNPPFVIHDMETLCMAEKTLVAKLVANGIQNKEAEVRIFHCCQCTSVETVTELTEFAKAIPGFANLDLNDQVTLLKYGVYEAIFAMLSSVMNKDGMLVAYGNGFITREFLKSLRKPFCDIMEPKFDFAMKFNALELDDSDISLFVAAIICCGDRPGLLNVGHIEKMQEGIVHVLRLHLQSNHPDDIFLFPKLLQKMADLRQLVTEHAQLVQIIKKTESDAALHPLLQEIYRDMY
# PPAR-alpha [3] = target: T1, PPAR-alpha; experiment: PPAR subtype activation (statement in description); settings: "it has now been discovered"; no method given
# [4] = test system: epidermal permeability barrier of hairless mice; experiment: Permeability barrier recovery (TEWL) after barrier disruption; format: in vivo, mouse; settings: for percent barrier recovery: pretreated 4 mM twice daily for three days
# Description: Permeability of the epidermal barrier was then experimentally disrupted by the repeated application of cellophane tape, solvent extraction (repeated topical acetone), or by detergent treatment (repeated topical sodium dodecyl sulfate) until the transepidermal water loss (TEWL) reached 6-8 mg/cm^2/h. Recovery of barrier function was determined by measurement of transepidermal water loss (TEWL) with an electrolytic water analyzer (MEECO®, Warrington, Pa.) at 3 and 6 hours after barrier disruption.
# Barrier recovery is reported as percent barrier recovery from the initial induced defect.
# ears of CD-1 mice = experiment: TPA-induced irritant contact dermatitis, ear thickness; format: in vivo, mouse; settings: for effect on TPA induced increase in ear thickness: GW1514 4 mM in acetone, topical, 45 minutes and 4 hours after TPA, FIG. 9
# Description: TPA was applied to the inner and outer surface of the left ears of male mice. The right ears were treated with vehicle alone (acetone). […] Ear thickness was measured with a digital caliper (Mitutoyo Corp., Tokyo, Japan).
# [5] = test system: cultured human keratinocytes; experiment: Keratinocyte differentiation in vitro, involucrin protein by Western blot; format: cell-based; settings: 8 μM
# Description: (§2) Second-passage keratinocytes isolated from newborn foreskins were cultured in serum-free keratinocyte growth medium (KGM; Clonetics, San Diego, Calif., USA). […] Poly-A mRNA was isolated and transglutaminase I, involucrin and PPAR-beta/delta mRNA levels were measured by Northern blot analysis (FIG. 1).
# Total cellular protein was isolated from cultured keratinocytes and involucrin protein levels were assessed by Western blot analysis. The cells were homogenized by sonication, their protein content was determined, and gels were loaded with equal amounts per sample and lane. Western Immunoblotting was performed using 7.5% SDS-PAGE, as described previously (Laemmli, 1970). Following transfer of protein to PVDF membranes, blots were incubated overnight with primary antibody at 4° C. Secondary antibody (peroxidase conjugated anti mouse; Amersham PharmaciaBiotech Inc., Piscataway, N.J.) was applied and blots were incubated at room temperature for 2 hours. Final detection was performed by chemiluminescence (ECL kit; Amersham). Involucrin protein was detected with a monoclonal mouse anti-human involucrin antibody.
# [6] = test system: epidermis of PPARα−/− and PPARα+/+ mice; experiment: Topical treatment of PPAR-alpha knockout and wild type mice: filaggrin/loricrin immunohistochemistry; format: in vivo, mouse; settings: 4 mM topical twice a day for 6 days
# Description: The epidermis of PPARα knockout (PPARα−/−) mice, as well as the epidermis of wild type(PPARα+/+) mice was treated with topical applications of GW1514. Expression of the in vivo differentiation markers loricrin and filaggrin was measured by immunohistochemical staining following treatment.
# PPAR-alpha−/−mice in a mixed C57BL/6 and Sv129 background were compared with age matched C57BL/6 and Sv129 wild type controls. […] At the conclusion of the experiment, animals were sacrificed. Skin samples were taken and fixed with 4% formaldehyde in phosphate-buffered saline (PBS) and embedded in paraffin. Sections (6 μm) were collected on microscope slides and used for immunohistochemistry. Photographs were taken with a Zeiss microscope and digital images were captured and assembled by appropriate software. Fillagrin and loricrin protein expression were detected by immunohistochemistry using antibodies purchased from BabCo (Richmond, Calif.).
# [7] = test system: cultured human keratinocytes; experiment: Keratinocyte differentiation in vitro, mRNA levels by Northern blot; format: cell-based
# Description: Therefore, to determine if GW1514 could stimulate keratinocyte differentiation, in vitro changes in the levels involucrin and transglutaminase I mRNA, and involucrin protein expression were determined when cells were cultured in the presence of GW1514. In addition, levels of PPAR-betaldelta mRNA were compared in cells treated with GW1514 versus untreated controls.
# as §2
# as §1, with “QuantityOne” for “Quantityone”, “Laboratories” for “Laboratories,”
# [8] = test system: normal epidermis of hairless mice; experiment: Topical treatment of normal epidermis: filaggrin/loricrin immunohistochemistry and PCNA staining; format: in vivo, mouse
# Description: At the conclusion of the experiment the animals were sacrificed. Mouse skin samples were fixed with 4% formaldehyde in phosphate-buffered saline (PBS) and embedded in paraffin. Sections (6 μm) were collected on microscope slides and used for immunohistochemistry. Photographs were taken with a Zeiss microscope and digital images were captured and assembled by appropriate software. Fillagrin and loricrin protein expression were detected by immunohistochemistry using antibodies purchased from BabCo (Richmond, Calif.). Proliferating keratinocytes were quantified in sections by staining with biotinylated anti-proliferating cell nuclear antigen (PCNA) antibody (CalTag Laboratories, Burlingame, Calif.).
# [9] = test system: hyperplastic epidermis of hairless mice; experiment: Experimentally induced epidermal hyperplasia: filaggrin/loricrin and PCNA staining; format: in vivo, mouse; settings: 4 mM in acetone topically for three days after induction of hyperplasia
# Description: The skin of 6-8 week old hairless mice (Simonsen Laboratories, Gilroy, Calif.) was treated twice a day for 3 days with acetone soaked cotton balls until the transepidermal water loss reached 6-8 mg/cm^2/h. […] At the completion of the experimental treatments, the animals were sacrificed and skin samples were taken and fixed with 4% formaldehyde in phosphate-buffered saline (PBS) and embedded in paraffin. Sections (6 μm) were collected on microscope slides and used for immunohistochemistry. Photographs were taken with a Zeiss microscope and digital images were captured and assembled by appropriate software. Fillagrin and loricrin protein expression were detected by immunohistochemistry using antibodies purchased from BabCo (Richmond, Calif.). Proliferating keratinocytes were quantified in sections by staining with biotinylated anti-proliferating cell nuclear antigen (PCNA) antibody (CalTag Laboratories, Burlingame, Calif.).
# [10] = 8 μM vs vehicle (0.05% ethanol), Northern blot
# [11] = 4 mM in acetone, topical, twice a day for 6 days, vs vehicle
molecule,measurement,setting,value
lipopolysaccharide [reference compound],PPAR-beta/delta mRNA levels relative to untreated control,[1],nearly twice
Cc1cccc(Nc2cc(Cl)nc(SCC(=O)O)n2)c1C [WY 14643],activation of PPAR-alpha,PPAR-alpha [2],activates
"Cc1cc(SCc2oc(-c3ccc(C(F)(F)F)cc3)nc2C)ccc1OCC(=O)O [GW1514, (2-methyl-4-(((4-methyl-2-(4-trifluoromethylphenyl)-1,3-oxazol-5-yl)methyl)sulfanyl)phenoxy)acetic acid]",activation of PPAR-alpha,PPAR-alpha [3],not also activators of PPAR-alpha
same,recovery of permeability barrier function,"[4]; regardless of the method of barrier perturbation (tape, acetone, detergent)",accelerated recovery
same,percent barrier recovery,[4]; three hour post tape-strip,~50%
same,percent barrier recovery,[4]; three hours after repeated topical acetone,about 30%
same,effect on TPA induced increase in ear thickness,ears of CD-1 mice,reduced the magnitude
same,increase in involucrin protein expression,[5],5 fold
same,filaggrin immunohistochemical staining,[6]; PPAR-alpha knockout (−/−) mice,increased immunohistochemical staining
same,loricrin immunohistochemical staining,[6]; PPAR-alpha knockout (−/−) mice,increased immunohistochemical staining
same,filaggrin immunohistochemical staining,[6]; wild type (+/+) mice,increased immunohistochemical staining
same,loricrin immunohistochemical staining,[6]; wild type (+/+) mice,increased immunohistochemical staining
same,PPAR-beta/delta mRNA levels,[7]; [10],increased levels
same,involucrin mRNA levels,[7]; [10],increased levels
same,transglutaminase I mRNA levels,[7]; [10],increased levels
same,induction of differentiation markers compared with high calcium concentrations in culture medium,"[7]; 8 μM, FIG. 1",more pronounced
same,filaggrin immunohistochemical staining,[8]; [11],increased levels of immunohistochemical staining
same,loricrin immunohistochemical staining,[8]; [11],increased levels of immunohistochemical staining
same,cell proliferation (PCNA),[8]; after six days treatment,at normal levels
same,expression of in vivo differentiation markers,[8]; after three days of treatment,increased expression
same,pool of proliferating cells (PCNA),[8]; three days after treatment,transiently increased
same,expression of differentiation marker filaggrin,[9],increase
same,expression of differentiation marker loricrin,[9],increase
same,number of proliferating nuclei as measured by PCNA staining,[9],did not produce an increase
C[C@H]1C[C@H]2[C@@H]3CCC4=CC(=O)C=C[C@]4(C)[C@@]3(F)[C@@H](O)C[C@]2(C)[C@@]1(O)C(=O)CCl [clobetasol],effect on TPA induced increase in ear thickness,ears of CD-1 mice,anti-inflammatory effect
IL1-β: cytokine used as inflammatory stimulus on cultured keratinocytes,PPAR-beta/delta mRNA levels relative to untreated control,[1],nearly twice
"CCCCCCCCCCCCCC(=O)O[C@@H]1[C@@H](C)[C@@]2(O)[C@@H](C=C(CO)C[C@]3(O)C(=O)C(C)=C[C@@H]23)[C@@H]2C(C)(C)[C@]12OC(C)=O [TPA, 12-O-tetradecanoylphorbol-13-acetate]",increase in ear thickness following TPA treatment,"ears of CD-1 mice; 10 μl of 0.03% TPA in acetone, single topical application",approximately 2 fold
same,increase in ear weight following TPA treatment,"ears of CD-1 mice; 10 μl of 0.03% TPA in acetone, single topical application, not shown",approximately 2 fold
